Measurements: ChEMBL document CHEMBL1201862, “PubChem BioAssay data set” (2004)
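Interpolation was linear, between the two tested concentrations surrounding the appropriate level; five concentrations were tested over 48 hours in 96-well plates. At the GI50, growth is halved.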 Activity calls are given as the source filed them. Cut-off read from the data, not from the text of the source: active = GI50 up to about 1.1 µM and inactive = higher.

What was measured:
Test in all cases: growth of human tumour cells (NCI), 48 h
NCI/ADR-RES = test system: NCI/ADR-RES
MDA-MB-435 = test system: MDA-MB-435
SN12C = test system: SN12C
HCT-116 = test system: HCT-116
ACHN = test system: ACHN
MOLT-4 = test system: MOLT-4
T47D = test system: T47D
HOP-62 = test system: HOP-62
M14 = test system: M14
HT-29 = test system: HT-29
SF-539 = test system: SF-539
SF-295 = test system: SF-295
MDA-N = test system: MDA-N
SK-MEL-2 = test system: SK-MEL-2
OVCAR-3 = test system: OVCAR-3
A498 = test system: A498
K562 = test system: K562
SW-620 = test system: SW-620
UACC-62 = test system: UACC-62
IGROV-1 = test system: IGROV-1

| Structure (SMILES) | GI50 (NCI/ADR-RES) | GI50 (MDA-MB-435) | GI50 (SN12C) | GI50 (HCT-116) | GI50 (ACHN) | GI50 (MOLT-4) | GI50 (T47D) | GI50 (HOP-62) | GI50 (M14) | GI50 (HT-29) | GI50 (SF-539) | GI50 (SF-295) | GI50 (MDA-N) | GI50 (SK-MEL-2) | GI50 (OVCAR-3) | GI50 (A498) | GI50 (K562) | GI50 (SW-620) | GI50 (UACC-62) | GI50 (IGROV-1) |
| --- | --- | --- | --- | --- | --- | --- | --- | --- | --- | --- | --- | --- | --- | --- | --- | --- | --- | --- | --- | --- |
| COc1cc(NC(C)=O)ccc1C(=O)NN1C(=O)/C(=C/c2ccco2)N=C1c1ccccc1 | > 50 µM (inactive) | 25 µM (inactive) | > 50 µM (inactive) | 30.8 µM (inactive) | > 50 µM (inactive) | 14.5 µM (inactive) | > 50 µM (inactive) | 21.4 µM (inactive) | 38.2 µM (inactive) | 36.9 µM (inactive) | 33.4 µM (inactive) | > 50 µM (inactive) | 14.9 µM (inactive) | 14.3 µM (inactive) | > 50 µM (inactive) | 15.4 µM (inactive) | 20.5 µM (inactive) | 27.7 µM (inactive) | 25.4 µM (inactive) | > 50 µM (inactive) |
| COc1cc2c(cc1[N+](=O)[O-])C(=O)C(Br)(Br)CCC2 | 2.68 µM (inactive) | 2.81 µM (inactive) | 2.21 µM (inactive) | 0.697 µM (active) | 2.11 µM (inactive) | 0.354 µM (active) | 2.68 µM (inactive) | 3.38 µM (inactive) | 2.12 µM (inactive) | 4.88 µM (inactive) | 1.9 µM (inactive) | 6.52 µM (inactive) | 3.09 µM (inactive) | 2.13 µM (inactive) | 3.51 µM (inactive) | 15.3 µM (inactive) | 1.09 µM (active) | 1.88 µM (inactive) | 3.43 µM (inactive) | 0.955 µM (active) |
| COC(=O)C1(Cc2ccc3c(c2)CCC3)Cc2ccccc2C1 | 44.1 µM (inactive) | 25.2 µM (inactive) | 30.1 µM (inactive) | 26.9 µM (inactive) | 41.9 µM (inactive) | 6.73 µM (inactive) | 24.6 µM (inactive) | 43.6 µM (inactive) | 39.7 µM (inactive) | 22.2 µM (inactive) | 34.4 µM (inactive) | 27.4 µM (inactive) | 29.9 µM (inactive) | 25.9 µM (inactive) | 40.7 µM (inactive) | 32.8 µM (inactive) | 11.6 µM (inactive) | 21.9 µM (inactive) | 36.1 µM (inactive) | 48.3 µM (inactive) |
| S=C(S)NCCCn1ccnc1 | > 100 µM (inactive) | > 100 µM (inactive) | > 100 µM (inactive) | > 100 µM (inactive) | > 100 µM (inactive) | > 100 µM (inactive) | > 100 µM (inactive) | > 100 µM (inactive) | > 100 µM (inactive) | > 100 µM (inactive) | > 100 µM (inactive) | > 100 µM (inactive) | > 100 µM (inactive) | > 100 µM (inactive) | > 100 µM (inactive) | > 100 µM (inactive) | > 100 µM (inactive) | > 100 µM (inactive) | > 100 µM (inactive) | > 100 µM (inactive) |
